Where a chain is given by its changes, count along the chain named. Structures can show the parent of a compound that is named as a salt.
Tests used:
Assay in all cases: SIRT1 inhibition assay, OAcADPr mass spectrometry
Format in all cases: biochemical
full-length hSIRT1 I223A = target: T1, full-length hSIRT1 I223A (Homo sapiens, UniProt Q96EB6, I223A)
T1 construct: The following point mutants of full-length hSIRT1 were generated; His6 (C); made in house
T1 sequence (Q96EB6 1-747 I223A): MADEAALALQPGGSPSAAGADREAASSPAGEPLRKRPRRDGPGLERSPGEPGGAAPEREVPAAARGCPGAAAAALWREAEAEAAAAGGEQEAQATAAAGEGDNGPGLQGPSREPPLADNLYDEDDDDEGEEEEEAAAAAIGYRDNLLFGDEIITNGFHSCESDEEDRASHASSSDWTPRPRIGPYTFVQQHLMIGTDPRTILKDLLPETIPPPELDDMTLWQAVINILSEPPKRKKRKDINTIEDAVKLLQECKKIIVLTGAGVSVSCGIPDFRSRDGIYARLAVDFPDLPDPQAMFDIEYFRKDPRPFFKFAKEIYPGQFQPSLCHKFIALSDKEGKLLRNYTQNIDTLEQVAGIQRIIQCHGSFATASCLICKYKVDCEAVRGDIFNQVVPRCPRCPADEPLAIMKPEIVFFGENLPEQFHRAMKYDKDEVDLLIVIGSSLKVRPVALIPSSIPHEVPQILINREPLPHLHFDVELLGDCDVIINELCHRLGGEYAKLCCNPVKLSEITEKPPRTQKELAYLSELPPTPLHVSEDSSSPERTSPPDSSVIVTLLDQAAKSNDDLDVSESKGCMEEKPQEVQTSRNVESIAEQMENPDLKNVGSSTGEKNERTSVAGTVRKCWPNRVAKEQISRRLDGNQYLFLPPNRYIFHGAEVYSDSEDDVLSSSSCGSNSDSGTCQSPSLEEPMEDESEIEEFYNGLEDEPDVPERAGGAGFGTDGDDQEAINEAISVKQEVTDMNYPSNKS
Procedure: (§1) SIRT1 activation and inhibition assays were run in reaction buffer with 0.05% BSA at 25° C. and analyzed using the OAcADPr assay. Enzyme and compound were pre-incubated for 20 minutes before addition of substrates.

full-length hSIRT1 V224A = target: T2, full-length hSIRT1 V224A (Homo sapiens, UniProt Q96EB6, V224A)
T2 construct: The following point mutants of full-length hSIRT1 were generated; His6 (C); made in house
T2 sequence (Q96EB6 1-747 V224A): T1 sequence (Q96EB6 1-747 I223A) with A223I, V224A
Procedure: as §1

full-length hSIRT1 N226A = target: T3, full-length hSIRT1 N226A (Homo sapiens, UniProt Q96EB6, N226A)
T3 construct: The following point mutants of full-length hSIRT1 were generated; His6 (C); made in house
T3 sequence (Q96EB6 1-747 N226A): T1 sequence (Q96EB6 1-747 I223A) with A223I, N226A
Procedure: as §1

## CCCC[C@H](NC(=O)[C@H](CC(C)C)NC(=O)[C@H](CCCCNC(=O)C(F)(F)F)NC(=O)[C@H](CCCCN)NC(=O)[C@H](Cc1c[nH]cn1)NC(=O)[C@H](CCCNC(=N)N)NC(C)=O)C(=O)N[C@@H](Cc1ccccc1)C(N)=O [TFA-p53 7-mer, Ac-RHK-K^TFA-L-Nle-F-NH2]
full-length hSIRT1 I223A
  IC50: 540 ± 150 nM
full-length hSIRT1 V224A
  IC50: 860 ± 80 nM
full-length hSIRT1 N226A
  IC50: 350 ± 40 nM

Source: patent US9765075B2, “Substituted bridged urea analogs as sirtuin modulators” (GLAXOSMITHKLINE LLC, priority 2013, dated 2017)
